Measured values taken from patent US20230049130A1, “DEUCRAVACITINIB CRYSTAL FORM, PREPARATION METHOD THEREFOR AND USE THEREOF” (CRYSTAL PHARMACEUTICAL (SUZHOU) CO., LTD., priority 2020, published 2023).
Blank lines part the entries; values can stand above or below the compound they belong to.

Legend:
Assay type in all cases: physicochemical
Bulk and tapped density = conditions: for Bulk density: about 500 mg powder in 5-mL cylinder; for Tapped density: tapped 1250 times
Procedure: About 500 mg of powder were added into a 5-mL measuring cylinder and bulk volume was recorded. Then the powder was tapped for 1250 times by ZS-2E tap density tester to make it in the tightest state and the tapped volume was recorded. The bulk density and tapped density were calculated.

[1] = Kinetic solubility in SGF, FeSSIF and FaSSIF (HPLC)
Procedure: When solubility test is used to predict the in vivo performance of a drug, it is critical to simulate in vivo conditions as closely as possible. Simulated gastric fluid (SGF), Fed-state simulated intestinal fluid (FeSSIF) and Fasted-state simulated intestinal fluid (FaSSIF) can be used to simulate the conditions in vivo and predict the effects of eating, thus solubilities in these media are closer to those in vivo.
15-20 mg of Form CSIII of the present disclosure and 15-20 mg of Form A were suspended into 2.5 mL of SGF, 2.5 mL of FeSSIF, and 2.5 mL of FaSSIF to get suspensions. After equilibrated for 1 h and 4 h, concentrations of these solutions were measured by HPLC.

[2] = Physical stability upon humidity change (DVS, XRPD); conditions: cycle of 0%-95%-0%RH at 25° C.
Procedure: Dynamic Vapor Sorption (DVS) is measured via an SMS (Surface Measurement Systems Ltd.) intrinsic DVS instrument. Its control software is DVS- Intrinsic control software, and its analysis software is DVS-Intrinsic Analysis software. Typical Parameters for DVS test are as follows: • Temperature: 25° C. • Gas and flow rate: N2, 200 mL/min • RH range: 0% RH to 95% RH
Dynamic vapor sorption (DVS) was applied to test the stability of Form CSIII. A certain amount of Form CSIII was tested in a cycle of 0%-95%-0%RH at 25° C.

[3] = Physical stability under pressure (tableting, XRPD); conditions: compressed under 5 kN, 10 kN and 20 kN
Source text: A certain amount of Form CSIII was compressed into tablets under 5 kN, 10 kN and 20 kN with suitable tableting die. Crystalline forms before and after tableting were checked by XRPD.

[4] = Physical stability upon grinding (XRPD); conditions: ground manually 5 minutes in a mortar
Procedure: Form CSIII sample was grounded manually for 5 minutes in a mortar. Crystalline forms before and after grinding were checked by XRPD.

[5] = Stability of Form CSIII on storage (XRPD, HPLC purity); conditions: for Crystalline form after storage: XRPD
Procedure: Approximately 5 mg of Form CSIII samples was stored under different conditions of 25° C./60%RH, 40° C./75%RH, and 60° C./75%RH. Crystalline form and chemical purity were checked by XRPD and HPLC, respectively.

[6] = applicant's characterisation of repeated prior-art form

Bulk density (Bulk and tapped density): 0.3899 g/mL
Density (in words) (Bulk and tapped density; [6]): low density
Tapped density (Bulk and tapped density): 0.5199 g/mL
Concentration ([1]; FaSSIF, equilibrated 1 hour): 13.5 µg/mL
Concentration ([1]; FaSSIF, equilibrated 4 hours): 13.6 µg/mL
Concentration ([1]; FeSSIF, equilibrated 1 hour): 82.3 µg/mL
Concentration ([1]; FeSSIF, equilibrated 4 hours): 68.8 µg/mL
Concentration ([1]; SGF, equilibrated 1 hour): 1114.1 µg/mL
Concentration ([1]; SGF, equilibrated 4 hours): 617.2 µg/mL
Solubility (in words) [1, 6]: poor solubility
SMILES: [2H]C([2H])([2H])NC(=O)c1nnc(NC(=O)C2CC2)cc1Nc1cccc(-c2ncn(C)n2)c1OC [Form A, 6-(cyclopropanecarboxamido)-4-((2-methoxy-3-(1-methyl-1H-1,2,4-triazol-3-yl)phenyl)amino)-N-(methyl-d3) pyridazine-3-carboxamide, reference compound]

Crystalline state after DVS test [2]: does not change
Crystalline state after tableting [3]: does not change
Bulk density (Bulk and tapped density): 0.4276 g/mL
Tapped density (Bulk and tapped density): 0.5987 g/mL
Concentration ([1]; FaSSIF, equilibrated 1 hour): 49 µg/mL
Solubility relative to that of Form A ([1]; FaSSIF, equilibrated 1 hour): 3.6 times
Concentration ([1]; FaSSIF, equilibrated 4 hours): 55.7 µg/mL
Solubility relative to that of Form A ([1]; FaSSIF, equilibrated 4 hours): 4.1 times
Concentration ([1]; FeSSIF, equilibrated 1 hour): 193.6 µg/mL
Concentration ([1]; FeSSIF, equilibrated 4 hours): 179.3 µg/mL
Concentration ([1]; SGF, equilibrated 1 hour): 1582.4 µg/mL
Concentration ([1]; SGF, equilibrated 4 hours): 1296.8 µg/mL
Crystalline state after grinding [4]: does not change
Time stable on storage ([5]; 25° C./60% RH): at least 3 months
Crystalline form after storage ([5]; 25° C./60%RH (open), 3 months): Form CSIII
Crystalline form after storage ([5]; 25° C./60%RH (sealed), 3 months): Form CSIII
Time stable on storage ([5]; 40° C./75% RH): at least 3 months
Crystalline form after storage ([5]; 40° C./75%RH (open), 3 months): Form CSIII
Crystalline form after storage ([5]; 40° C./75%RH (sealed), 3 months): Form CSIII
Time stable on storage ([5]; 60° C./75% RH): at least one month
Change in chemical purity during storage ([5]; 60° C./75% RH, one month, open condition, HPLC): 0.07%
Crystalline form after storage ([5]; 60° C./75%RH (open), one month): Form CSIII
Crystalline form after storage ([5]; 60° C./75%RH (sealed), one month): Form CSIII
SMILES: [2H]C([2H])([2H])NC(=O)c1nnc(NC(=O)C2CC2)cc1Nc1cccc(-c2ncn(C)n2)c1OC [Form CSIII, 6-(cyclopropanecarboxamido)-4-((2-methoxy-3-(1-methyl-1H-1,2,4-triazol-3-yl)phenyl)amino)-N-(methyl-d3) pyridazine-3-carboxamide]
